Laboratory results taken from US9090576B2, “2-substituted-p-quinone derivatives for treatment of oxidative stress diseases” (Edison Pharmaceuticals, Inc., priority 2008, dated 2015).

How the values were obtained:
Assay type in all cases: cell-based
[1] = test system: Human dermal fibroblasts from Friedreich's Ataxia patients; experiment: Rescue of BSO-stressed FRDA fibroblasts (Calcein AM viability); conditions: BSO-stressed FRDA fibroblasts (GM04078), less than about 150 nM, read-out: EC50, protection against FRDA
How it was run: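 Patient FRDA fibroblasts (GM04078) seeded at 3,000 cells/well, given serially diluted compound from a 150 μM master solution, then stressed next day with 1 mM BSO.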

[2] = test system: human dermal fibroblasts from Huntington's patients; experiment: Rescue of BSO-stressed fibroblasts from Huntington's patients (screen as Example A); conditions: Fibroblast, BSO-stressed Huntington's fibroblasts (GM 04281), less than about 150 nM, read-out: EC50, protection against Huntington's
How it was run: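 Coriell Huntington's line GM 04281 plated at 3,000 cells/well and attached overnight at 37 °C. Survival was read by Calcein AM (1.2 μM, 50-70 min, RT) fluorescence at 485/525 nm, giving EC50.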

[3] = test system: human dermal fibroblasts from LHON patients; experiment: Rescue of BSO-stressed fibroblasts from LHON patients (screen as Example A); conditions: Fibroblast, BSO-stressed LHON fibroblasts (GM03858), less than about 150 nM, read-out: EC50, protection against LHON
How it was run: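 LHON patient fibroblasts (Coriell GM03858) at 3,000 cells/well were pre-treated overnight with compounds serially diluted from a 150 μM master solution. Surviving cells were stained with 1.2 μM Calcein AM for 50-70 min at RT and read by fluorescence (485/525 nm), giving EC50.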

[4] = test system: human dermal fibroblasts from CoQ10 deficient patients; experiment: Rescue of BSO-stressed fibroblasts from CoQ10 deficient patients (screen similar to Example A); conditions: Fibroblast, BSO-stressed fibroblasts from CoQ10 deficient patients harboring a CoQ2 mutation, less than about 150 nM, read-out: EC50, protection against CoQ10 deficiency
Description: (§1) A culture with FRDA fibroblasts was started from a 1 ml vial with approximately 500,000 cells stored in liquid nitrogen. Cells were propagated in 10 cm cell culture dishes by splitting every third day in a ratio of 1:3 until nine plates were available. Once confluent, fibroblasts were harvested. For 54 micro titer plates (96 well-MTP) a total of 14.3 million cells (passage eight) were re-suspended in 480 ml medium, corresponding to 100 μl medium with 3,000 cells/well. The remaining cells were distributed in 10 cm cell culture plates (500,000 cells/plate) for propagation. The plates were incubated overnight at 37° C. in an atmosphere with 95% humidity and 5% CO2 to allow attachment of the cells to the culture plate.
(§2) MTP medium (243 μl) was added to a well of the microtiter plate. The test compounds were unfrozen, and 7.5 μl of a 5 mM stock solution was dissolved in the well containing 243 μl medium, resulting in a 150 μM master solution. Serial dilutions from the master solution were made. The period between the single dilution steps was kept as short as possible (generally less than 1 second).
(§3) Plates were kept overnight in the cell culture incubator. The next day, 10 μl of a 10 mM BSO solution were added to the wells, resulting in a 1 mM final BSO concentration. Forty-eight hours later, three plates were examined under a phase-contrast microscope to verify that the cells in the 0% control (wells E1-H1) were clearly dead. The medium from all plates was discarded, and the remaining liquid was removed by gently tapping the plate inversed onto a paper towel.
(§4) 100 μl of PBS containing 1.2 μM Calcein AM were then added to each well. The plates were incubated for 50-70 minutes at room temperature. After that time the PBS was discarded, the plate gently tapped on a paper towel and fluorescence (excitation/emission wavelengths of 485 nm and 525 nm, respectively) was read on a Gemini fluorescence reader. Data was imported into Microsoft Excel (EXCEL is a registered trademark of Microsoft Corporation for a spreadsheet program) and used to calculate the EC50 concentration for each compound.
Compounds of the invention were tested using a screen similar to the one described in Example A, but substituting FRDA cells with cells obtained from CoQ10 deficient patients harboring a CoQ2 mutation. The compounds were tested for their ability to rescue human dermal fibroblasts from CoQ10 deficient patients from oxidative stress.

[5] = test system: human dermal fibroblasts from Parkinson's Disease patients; experiment: Rescue of BSO-stressed fibroblasts from Parkinson's Disease patients (screen as Example A); conditions: Fibroblast, BSO-stressed Parkinson's Disease fibroblasts (AG20439), less than about 150 nM, read-out: EC50, protection against PD
Description: as §1, §2, §3, §4
Compounds of the invention were screened as described in Example A, but substituting FRDA cells with Parkinson's Disease (PD) cells obtained from the Coriell Cell Repositories (Camden, N.J.; repository number AG20439). The compounds were tested for their ability to rescue human dermal fibroblasts from Parkinson's Disease patients from oxidative stress.

Measured: EC50

CC1=C(C)C(=O)C(CCNC(=O)NCc2ccc(C(F)(F)F)cc2)=C(C)C1=O [1-(4-(trifluoromethyl)benzyl)-3-(2-(2,4,5-trimethyl-3,6-dioxocyclohexa-1,4-dienyl)ethyl)urea]
< 150 nM: [1] | [2] | [3] | [4]

CC1=C(C)C(=O)C(CCNC(=O)N(C)Cc2ccc(Cl)cc2)=C(C)C1=O [1-(4-chlorobenzyl)-1-methyl-3-(2-(2,4,5-trimethyl-3,6-dioxocyclohexa-1,4-dienyl)ethyl)urea]
< 150 nM: [2] | [3] | [4]

CC1=C(C)C(=O)C(CCNC(=O)C2(c3ccccc3)CC2)=C(C)C1=O [1-phenyl-N-(2-(2,4,5-trimethyl-3,6-dioxocyclohexa-1,4-dienyl)ethyl)cyclopropanecarboxamide]
< 150 nM: [1] | [3] | [4]

CC1=C(C)C(=O)C(CCC(C)(C)C(N)=O)=C(C)C1=O [2,2-dimethyl-4-(2,4,5-trimethyl-3,6-dioxocyclohexa-1,4-dienyl)butanamide]
< 150 nM: [1] | [2] | [3] | [5] | [4]

CC1=C(C)C(=O)C(CCCC(=O)N2CCCc3ccccc32)=C(C)C1=O [2-(4-(3,4-dihydroquinolin-1 (2H)-yl)-4-oxobutyl)-3,5,6-trimethylcyclohexa-2,5-diene-1,4-dione]
< 150 nM: [1] | [2] | [3] | [4]

CC1=C(C)C(=O)C(CCNC(=O)C(C)c2ccc(Cl)cc2)=C(C)C1=O (centres unmarked) [2-(4-chlorophenyl)-N-(2-(2,4,5-trimethyl-3,6-dioxocyclohexa-1,4-dienyl)ethyl)propanamide]
< 150 nM: [1] | [2] | [4]

COc1ccc(CC(=O)NCCC2=C(C)C(=O)C(C)=C(C)C2=O)cc1 [2-(4-methoxyphenyl)-N-(2-(2,4,5-trimethyl-3,6-dioxocyclohexa-1,4-dienyl)ethyl)acetamide]
< 150 nM: [1] | [2] | [3] | [4]

CC1=C(C)C(=O)C(CCNC(=O)Cc2cccc3ccccc23)=C(C)C1=O [2-(naphthalen-1-yl)-N-(2-(2,4,5-trimethyl-3,6-dioxocyclohexa-1,4-dienyl)ethyl)acetamide]
< 150 nM: [1] | [4]

CC1=C(C)C(=O)C(CCNC(=O)C(O)c2ccc(C(F)(F)F)cc2)=C(C)C1=O (centres unmarked) [2-hydroxy-2-(4-(trifluoromethyl)phenyl)-N-(2-(2,4,5-trimethyl-3,6-dioxocyclohexa-1,4-dienyl)ethyl)acetamide]
< 150 nM: [1] | [2] | [3] | [4]

CC1=C(C)C(=O)C(CCNC(=O)CCc2ccc(F)cc2)=C(C)C1=O [3-(4-fluorophenyl)-N-(2-(2,4,5-trimethyl-3,6-dioxocyclohexa-1,4-dienyl)ethyl)propanamide]
< 150 nM: [1] | [4]

CC1=C(C)C(=O)C(CCNC(=O)c2ccc(C#N)cc2)=C(C)C1=O [4-cyano-N-(2-(2,4,5-trimethyl-3,6-dioxocyclohexa-1,4-dienyl)ethyl)benzamide]
< 150 nM: [1] | [3] | [4]

CC1=C(C)C(=O)C(CCCC(=O)Nc2ccc3c(c2)OCCO3)=C(C)C1=O [N-(2,3-dihydrobenzo[b][1,4]dioxin-6-yl)-4-(2,4,5-trimethyl-3,6-dioxocyclohexa-1,4-dienyl)butanamide]
< 150 nM: [1] | [2] | [3] | [4]

CC1=C(C)C(=O)C(CCCC(=O)NCc2ccccc2F)=C(C)C1=O [N-(2-fluorobenzyl)-4-(2,4,5-trimethyl-3,6-dioxocyclohexa-1,4-dienyl)butanamide]
< 150 nM: [2] | [5] | [4]

CC1=C(C)C(=O)C(CCCC(=O)NCc2cccc(Cl)c2)=C(C)C1=O [N-(3-chlorobenzyl)-4-(2,4,5-trimethyl-3,6-dioxocyclohexa-1,4-dienyl)butanamide]
< 150 nM: [2] | [3] | [5] | [4]

CC1=C(C)C(=O)C(CCCC(=O)NCCc2cccc(Cl)c2)=C(C)C1=O [N-(3-chlorophenethyl)-4-(2,4,5-trimethyl-3,6-dioxocyclohexa-1,4-dienyl)butanamide]
< 150 nM: [2] | [3] | [5] | [4]

CC1=C(C)C(=O)C(CCCC(=O)Nc2cccc(C#N)c2)=C(C)C1=O [N-(3-cyanophenyl)-4-(2,4,5-trimethyl-3,6-dioxocyclohexa-1,4-dienyl)butanamide]
< 150 nM: [1] | [2] | [3] | [4]

CC1=C(C)C(=O)C(CCCC(=O)NCc2cccc(F)c2)=C(C)C1=O [N-(3-fluorobenzyl)-4-(2,4,5-trimethyl-3,6-dioxocyclohexa-1,4-dienyl)butanamide]
< 150 nM: [2] | [5] | [4]

CC1=C(C)C(=O)C(CCCC(=O)Nc2cccc(F)c2)=C(C)C1=O [N-(3-fluorophenyl)-4-(2,4,5-trimethyl-3,6-dioxocyclohexa-1,4-dienyl)butanamide]
< 150 nM: [1] | [2] | [3] | [4]

CC1=C(C)C(=O)C(CCCC(=O)NCC2(O)CC2)=C(C)C1=O [N-((1-hydroxycyclopropyl)methyl)-4-(2,4,5-trimethyl-3,6-dioxocyclohexa-1,4-dienyl)butanamide]
< 150 nM: [1] | [2] | [3] | [4]

CC1=C(C)C(=O)C(CCCC(=O)NCc2ccccc2)=C(C)C1=O [N-benzyl-4-(2,4,5-trimethyl-3,6-dioxocyclohexa-1,4-dienyl)butanamide]
< 150 nM: [2] | [3] | [5] | [4]

CC1=C(C)C(=O)C(CCCC(=O)NCCc2ccccc2)=C(C)C1=O [N-phenethyl-4-(2,4,5-trimethyl-3,6-dioxocyclohexa-1,4-dienyl)butanamide]
< 150 nM: [2] | [3] | [4]
